The text below walks through data of US8058228B2, “Leptin peptide antagonists” (Boston Biomedical Research Institute, priority 2004, dated 2011).

Common to all, as to type: cell-based
The test system of assay [1] is OB-R. The assay can be described thus: IL-1R tl expression by rabbit endometrial cells (immunocytochemistry, Western blot). As to conditions: for effect on leptin up-regulation of IL-1R tl expression: LPA-2 30 and 120 nM, LPA-2Sc 120 nM, antibody 20 μg/ml. As for the experimental part:
(§1) Rabbit endometrial cells (5×10^5 cells/well) were cultured for 5-9 days in DMEM-MCDB105 (3:1) medium containing 10% fetal bovine serum (FBS), 5 μg/ml insulin, 1% amphopthericin B, 100 μg/ml streptomycin and 100 U/ml penicillin until confluent layers were obtained. The cells were washed twice with 100 mM phosphate saline buffer (PBS) −2% BSA (w/v), pH 7.2 and cultured for an additional 2 days in the same medium but without FBS (basal medium). This procedure was performed to reduce any effects of cytokines from FBS on the phosphorylation rate of Stat3 as well as the expression of other cytokines and their receptors. Cells were washed as described before and cultured in basal medium containing leptin (0-10 nM), OB-R antibody (1-20 μg/ml) and/or LPA-2 peptides (0-300 nM). Cultures were stopped at 24 h and the cells were used for immunocytochemistry, binding studies and western blot analysis. The conditioned media were collected, lyophilized and stored at −80° C. for ELISA determinations. Duplicate wells were run for each treatment and the experiments repeated at least three times with different cell preparations from different rabbits. Controls were the same cellular preparations cultured in basal medium containing non-specific goat IgGs and LPA-2Sc.
(§2) The rabbit endometrial cells were cultured as described above in duplicate on 8-well glass-bottom culture plates (Nalgene Nunc International, Naperville, Ill.) and fixed with methanol at −20° C. for 20 min for immunocytochemical studies. All the antibodies tested were diluted in PBS-2% BSA (w/v; buffer A).
(§3) Anti IL-1R tl (1 μg/ml), anti LIF-R (2 μg/ml), anti vimentin (1:50), anti cytokeratin (1:50) and anti p-Stat3 (1 μg/ml) antibodies were used to assess the expression of the respective antigens by rEEC and rESC cultures. After incubation with primary antibodies the cells were incubated with a streptavidin-biotin-alkaline phosphatase system according to the manufacturer directions (Vectastain, ABC-AP kit, Vector Laboratories, Burlingame, Calif.) and counter-stained with hematoxylin (Dako). Negative controls included cell preparations in which the primary antibodies were substituted by irrelevant species matched IgGs.
(§4) After culture in the presence of leptin, LPAs or antibodies, the endometrial cells were washed with ice-cold PBS and lysed by homogenization on ice with lysis buffer [[…] Tris, pH 7.4, containing […] NaCl, 2 mM EDTA, 10% glycerol, 50 mM β-glycerophosphate, […] NaF, 1% Nonidet P-40, 2 mM phenyl-methylsulfonyl fluoride, 2 mM sodium orthovanadate, 100 μM antipain, 0.1 mg/ml trypsin inhibitor and protease cocktail inhibitor 1:50 (Sigma)]. […] Protein concentrations were determined using the Bradford protein assay (BioRad Laboratories Inc., Hercules, Calif.). […]

The subject of assay [2] is OB-R. The experiment in a line: LIF-R expression by rabbit endometrial cells (immunocytochemistry, Western blot). The note with it: leptin 3 nM; for effect on leptin up-regulation of LIF-R expression: rESC (immunocytochemistry) and rEEC (Western blot), LPA-2 30 and 120 nM; for LIF-R expression after leptin: rESC and rEEC. As for the experimental part:
as §1, §2, §3, §4

Assay [3] relates to OB-R. The experiment in a line: OB-R expression by rabbit endometrial cells (immunocytochemistry, Western blot). As to conditions: cultures of rESC or rEEC. As for the experimental part: Rabbit endometrial cells (5×10^5 cells/well) were cultured for 5-9 days in DMEM-MCDB105 (3:1) medium containing 10% fetal bovine serum (FBS), 5 μg/ml insulin, 1% amphopthericin B, 100 μg/ml streptomycin and 100 U/ml penicillin until confluent layers were obtained. The cells were washed twice with 100 mM phosphate saline buffer (PBS) −2% BSA (w/v), pH 7.2 and cultured for an additional 2 days in the same medium but without FBS (basal medium). This procedure was performed to reduce any effects of cytokines from FBS on the phosphorylation rate of Stat3 as well as the expression of other cytokines and their receptors. […]
The expression of OB-R was assessed by incubation of rEC for 1 h at room temperature with goat antibodies directed towards the amino terminal ends of human OB-R (R&D system) diluted 1:80 in buffer A.
as §4

For assay [4], the system named is OB-R. The assay can be described thus: LIF secretion by rabbit endometrial cell cultures (ELISA). As for the experimental part: as §1
IL-1β from rabbits and humans have sequence differences, but no data is available concerning the sequence of rabbit LIF. In addition, there are no commercial kits for measuring rabbit IL-1β or LIF. […] Conditioned media (n=3 per treatment) from rESC and rEEC cultured in the experimental conditions described above were used to quantify the secretion of LIF by ELISA (LIF-Quantikine®, R&D Systems). Standards, controls, and samples were assayed in duplicate. The intra- and interassay coefficients of variations were between 0.7-12% and 3-7%, respectively.
A general note: An ELISA detects its analyte on a solid surface through an enzyme-linked reagent.

Entries after “also recorded” stand apart in the source; their conditions may differ.

In the case of “VAEVLNRSDLIQRISFSLDLNNSKLH [LPA-2Sc, scrambled version of LPA-2, negative control, reference compound]”, in the assay on OB-R [1] (rESC, leptin 3 nM), the “effect on leptin up-regulation of IL-1R tl expression” value was “did not alter the leptin effect on IL-1R tl expression”. In addition, the “effect on leptin up-regulation of LIF-R expression” value in the assay on OB-R [2] is “did not prevent the leptin up-regulation of LIF-R”.
“leptin: human recombinant leptin (R&D Systems), OB-R ligand used as stimulus”: the “IL-1R tl expression after leptin” value in the assay with OB-R [1] (rabbit endometrial cells, leptin 3 nM) was “substantially up-regulates IL-1R tl expression”. In addition, in the assay on OB-R [3], the “expression of OB-R” value is reported as “did not affect the expression of OB-R”. Besides, the “LIF-R expression after leptin” value in the assay with OB-R [2] is “up-regulates the expression of LIF-R”; with OB-R [2] (listed as Leptin) it was “significantly increases the expression of LIF-R”. In addition, the “LIF secretion after leptin” value with OB-R [4] (rEEC and rESC, more evident in rEEC) is reported as “increased LIF secretion in a dose-dependent manner”.
For the substance “SRNVIQISNDLENLRDLLHVLAFSKS [LPA-2, 26 amino acid peptide, residues 70-95 of helix III of the human leptin molecule; leptin peptide antagonist]”, in the assay with OB-R [1] (rESC, LPA-2 120 nM, Western blot), the “effect on basal expression of IL-1R tl” value was “inhibited the basal expression of IL-1R tl”. Besides, in the assay with OB-R [1] (rESC, leptin 3 nM), the “effect on leptin up-regulation of IL-1R tl expression” value is given as “completely abolished; also recorded: significantly decreased”. The “expression of OB-R” value in the assay with OB-R [3] is “did not affect the expression of OB-R”. The “effect on leptin up-regulation of LIF-R expression” value in the assay on OB-R [2] is reported as “totally inhibited the leptin effect on LIF-R expression”. The “effect on leptin induction of LIF secretion” value in the assay with OB-R [4] (rEEC, leptin 3 nM with LPA-2 3 to 300 nM, OB-R antibody 20 μg/ml) is recorded as “significantly inhibited the leptin (3 nM) induction of LIF secretion”. Besides, in the assay on OB-R [4] (rEEC, leptin 10 nM, equimolar LPA-2 (10 nM)), the “effect on leptin-induced LIF secretion at the higher leptin dose” value was “effectively inhibited; also recorded: completely inhibited”.
